Assay results: patent US20050026949A1, “Methods of therapeutic treatment using amounts of retinoids without regard to body weight” (Allergan, Inc., priority 2003, published 2005)

Test system: patients treated for psoriasis
Assay: Phase 3 studies of orally administered tazarotene for psoriasis: adverse events (Table 1)
Format: in vivo, human
Conditions: Taz 4.5 mg
Method: A series of Phase 3 studies are conducted on orally administered tazarotene for the treatment of psoriasis. Adverse events (side effects) are monitored. In addition, published data for acitretin's side effects are also considered.

[1] = Study 3, treated with Tazarotene for 3 months (N = 220)
[2] = Study 3, treated with Tazarotene for 6 months (N = 92)
[3] = combined data from Studies 1 and 2 (N = 348)

Question: Which Alopecia [1] does the source give for `CCOC(=O)c1ccc(C#Cc2ccc3c(c2)C(C)(C)CCS3)nc1` [tazarotene] here?
Answer: The Alopecia was 1 (0.5) NUMBER OF (%) OF PATIENTS.

Question: And the Arthralgia [1]?
Answer: Its Arthralgia is 28 (12.7) NUMBER OF (%) OF PATIENTS.

Question: And the Atrophy of skin [1]?
Answer: The Atrophy of skin was 0 (0.0) NUMBER OF (%) OF PATIENTS.

Question: And the Back pain [1]?
Answer: The Back pain was 7 (3.2) NUMBER OF (%) OF PATIENTS.

Question: What about the Cheilitis [1] of the same molecule?
Answer: Its Cheilitis is 149 (67.7) NUMBER OF (%) OF PATIENTS.

Question: And the “Dry Skin” value [1]?
Answer: Its value is 47 (21.4) NUMBER OF (%) OF PATIENTS.

Question: And the “Dry mouth/Oral dryness” value [1]?
Answer: The value was 11 (5.0) NUMBER OF (%) OF PATIENTS.

Question: What about the Epistaxis [1] of the same molecule?
Answer: Its Epistaxis is 1 (0.5) NUMBER OF (%) OF PATIENTS.

Question: What about the “Erythematous rash/Erythema” value [1] of the same molecule?
Answer: The value was 0 (0.0) NUMBER OF (%) OF PATIENTS.

Question: What about the Hyperesthesia [1] of the same molecule?
Answer: Its Hyperesthesia is 0 (0.0) NUMBER OF (%) OF PATIENTS.

Question: And the “Nail Disorder” value [1]?
Answer: Its value is 1 (0.5) NUMBER OF (%) OF PATIENTS.

Question: And the Paresthesia [1]?
Answer: Its Paresthesia is 3 (1.4) NUMBER OF (%) OF PATIENTS.

Question: What about the Paronychia/Nail disorder [1] of the same molecule?
Answer: Its Paronychia/Nail disorder is 1 (0.5) NUMBER OF (%) OF PATIENTS.

Question: What about the Pruritus [1] of the same molecule?
Answer: The Pruritus was 11 (5.0) NUMBER OF (%) OF PATIENTS.

Question: What about the Rhinitis [1] of the same molecule?
Answer: Its Rhinitis is 0 (0.0) NUMBER OF (%) OF PATIENTS.

Question: What about the Rigors/Chills [1] of the same molecule?
Answer: Its Rigors/Chills is 1 (0.5) NUMBER OF (%) OF PATIENTS.

Question: What about the “Skin peeling/Desquamation” value [1] of the same molecule?
Answer: The value was 3 (1.4) NUMBER OF (%) OF PATIENTS.

Question: And the “Sticky skin/Skin disorder” value [1]?
Answer: Its value is 0 (0.0) NUMBER OF (%) OF PATIENTS.

Question: What about the Xerophthalmia/Eye disorder [1] of the same molecule?
Answer: Its Xerophthalmia/Eye disorder is 3 (1.4) NUMBER OF (%) OF PATIENTS.

Question: What about the Alopecia [2] of the same molecule?
Answer: Its Alopecia is 5 (5.4) NUMBER OF (%) OF PATIENTS.

Question: What about the Arthralgia [2] of the same molecule?
Answer: The Arthralgia was 30 (32.6) NUMBER OF (%) OF PATIENTS.

Question: And the Atrophy of skin [2]?
Answer: The Atrophy of skin was 0 (0.0) NUMBER OF (%) OF PATIENTS.

Question: And the Back pain [2]?
Answer: The Back pain was 10 (10.9) NUMBER OF (%) OF PATIENTS.

Question: What about the Cheilitis [2] of the same molecule?
Answer: Its Cheilitis is 65 (70.7) NUMBER OF (%) OF PATIENTS.

Question: What about the “Dry Skin” value [2] of the same molecule?
Answer: The value was 24 (26.1) NUMBER OF (%) OF PATIENTS.

Question: What about the “Dry mouth/Oral dryness” value [2] of the same molecule?
Answer: Its value is 2 (2.2) NUMBER OF (%) OF PATIENTS.

Question: And the Epistaxis [2]?
Answer: Its Epistaxis is 0 (0.0) NUMBER OF (%) OF PATIENTS.

Question: What about the “Erythematous rash/Erythema” value [2] of the same molecule?
Answer: The value was 0 (0.0) NUMBER OF (%) OF PATIENTS.

Question: What about the Hyperesthesia [2] of the same molecule?
Answer: Its Hyperesthesia is 0 (0.0) NUMBER OF (%) OF PATIENTS.

Question: What about the “Nail Disorder” value [2] of the same molecule?
Answer: Its value is 1 (1.1) NUMBER OF (%) OF PATIENTS.

Question: And the Paresthesia [2]?
Answer: Its Paresthesia is 1 (1.1) NUMBER OF (%) OF PATIENTS.

Question: What about the Paronychia/Nail disorder [2] of the same molecule?
Answer: The Paronychia/Nail disorder was 1 (1.1) NUMBER OF (%) OF PATIENTS.

Question: And the Pruritus [2]?
Answer: Its Pruritus is 3 (3.3) NUMBER OF (%) OF PATIENTS.

Question: What about the Rhinitis [2] of the same molecule?
Answer: Its Rhinitis is 0 (0.0) NUMBER OF (%) OF PATIENTS.

Question: What about the Rigors/Chills [2] of the same molecule?
Answer: The Rigors/Chills was 1 (1.1) NUMBER OF (%) OF PATIENTS.

Question: What about the “Skin peeling/Desquamation” value [2] of the same molecule?
Answer: The value was 1 (1.1) NUMBER OF (%) OF PATIENTS.

Question: And the “Sticky skin/Skin disorder” value [2]?
Answer: The value was 0 (0.0) NUMBER OF (%) OF PATIENTS.

Question: And the Xerophthalmia/Eye disorder [2]?
Answer: Its Xerophthalmia/Eye disorder is 1 (1.1) NUMBER OF (%) OF PATIENTS.

Question: What about the Alopecia [3] of the same molecule?
Answer: Its Alopecia is 1 (0.3) NUMBER OF (%) OF PATIENTS.

Question: What about the Arthralgia [3] of the same molecule?
Answer: The Arthralgia was 60 (17.2) NUMBER OF (%) OF PATIENTS.

Question: And the Atrophy of skin [3]?
Answer: Its Atrophy of skin is 0 (0.0) NUMBER OF (%) OF PATIENTS.

Question: And the Back pain [3]?
Answer: Its Back pain is 16 (4.6) NUMBER OF (%) OF PATIENTS.

Question: What about the Cheilitis [3] of the same molecule?
Answer: Its Cheilitis is 228 (65.5) NUMBER OF (%) OF PATIENTS.

Question: And the “Dry Skin” value [3]?
Answer: The value was 82 (23.6) NUMBER OF (%) OF PATIENTS.

Question: What about the “Dry mouth/Oral dryness” value [3] of the same molecule?
Answer: The value was 11 (3.2) NUMBER OF (%) OF PATIENTS.

Question: And the Epistaxis [3]?
Answer: The Epistaxis was 2 (0.6) NUMBER OF (%) OF PATIENTS.

Question: What about the “Erythematous rash/Erythema” value [3] of the same molecule?
Answer: Its value is 2 (0.6) NUMBER OF (%) OF PATIENTS.

Question: What about the Hyperesthesia [3] of the same molecule?
Answer: Its Hyperesthesia is 0 (0.0) NUMBER OF (%) OF PATIENTS.

Question: And the “Nail Disorder” value [3]?
Answer: Its value is 2 (0.6) NUMBER OF (%) OF PATIENTS.

Question: What about the Paresthesia [3] of the same molecule?
Answer: The Paresthesia was 7 (2.0) NUMBER OF (%) OF PATIENTS.

Question: What about the Paronychia/Nail disorder [3] of the same molecule?
Answer: The Paronychia/Nail disorder was 2 (0.6) NUMBER OF (%) OF PATIENTS.

Question: And the Pruritus [3]?
Answer: The Pruritus was 21 (6.0) NUMBER OF (%) OF PATIENTS.

Question: What about the Rhinitis [3] of the same molecule?
Answer: Its Rhinitis is 8 (2.3) NUMBER OF (%) OF PATIENTS.

Question: And the Rigors/Chills [3]?
Answer: Its Rigors/Chills is 9 (2.6) NUMBER OF (%) OF PATIENTS.

Question: And the “Skin peeling/Desquamation” value [3]?
Answer: Its value is 3 (0.9) NUMBER OF (%) OF PATIENTS.

Question: What about the “Sticky skin/Skin disorder” value [3] of the same molecule?
Answer: Its value is 1 (0.3) NUMBER OF (%) OF PATIENTS.

Question: And the Xerophthalmia/Eye disorder [3]?
Answer: Its Xerophthalmia/Eye disorder is 8 (2.3) NUMBER OF (%) OF PATIENTS.
